Numbered stars: 1 amine (or outer) side, 2 acyl side, 3 side chain; on linkers, the order of the positions; unused ones are H or OH. Bridge positions count the residues as written; N and C are the ends. Square brackets hold non-standard residues; d marks the D form. Peptide text beside a SMILES is read from it. * marks the point of attachment. hPhe(3-Cl-4-CF3) = N[C@@H](CCc1ccc(C(F)(F)F)c(Cl)c1)C(=O)O; hPhe(4-CF3) = N[C@@H](CCc1ccc(C(F)(F)F)cc1)C(=O)O; ACHC(1R,2R) = O=C([C@@H]1CCCC[C@H]1N[*:1])[*:2]; NMePhe(4-Cl) = CN[C@@H](Cc1ccc(Cl)cc1)C(=O)O; NMeAla(cPent) = CN[C@@H](CC1CCCC1)C(=O)O; NMeGly(cPent) = CN[C@H](C(=O)O)C1CCCC1; NMeCha = CN[C@@H](CC1CCCCC1)C(=O)O; NEtLeu = CCN[C@@H](CC(C)C)C(=O)O; NMeChg = CN[C@H](C(=O)O)C1CCCCC1; NMeT = CN[C@H](C(=O)O)[C@@H](C)O; N(CH2CH2)2CF2 = FC1(F)CCN(*)CC1; NMeD = CN[C@@H](CC(=O)O)C(=O)O; NMeL = CN[C@@H](CC(C)C)C(=O)O; NMeV = CN[C@H](C(=O)O)C(C)C; d(β3hA) = C[C@@H](N)CC(=O)O; NMeS = CN[C@@H](CO)C(=O)O; dPip = O=C(O)[C@H]1CCCCN1; Morpholide = C1CN(*)CCO1; NMeA = CN[C@@H](C)C(=O)O; Piperidide = C1CCN(*)CC1; Thz = O=C(O)[C@@H]1CSCN1; dNMeA = CN[C@H](C)C(=O)O; Ac5c = NC1(C(=O)O)CCCC1; Aze = O=C(O)[C@@H]1CCN1; CH2CMe2OH = CC(C)(O)C*; Aib = CC(C)(N)C(=O)O; Cyclopropyl = C1CC1*; Bn = c1ccc(C*)cc1; NEtG = CCNCC(=O)O; Sar = CNCC(=O)O
target: protein-protein interaction between Kras and SOS1 (biotin-tagged human Kras loaded with GDP, His-tagged human SOS1) (Homo sapiens (Human), UniProt P01116, G12D); assay: Protein-protein interaction inhibition between Kras and SOS1 (KrasG12D-SOS PPI) using AlphaScreen; format: biochemical; details: AlphaScreen; biotin-tagged human Kras loaded with GDP, His-tagged human SOS1; read-out: KRAS G12D-SOS PPI IC50;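 further: kras produced in E. coli, Ni-coupled donor beads and streptavidin acceptor beads, excitation 680 nm with emission detected at 520–620 nm via singlet oxygen transfer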

For `CC[C@H](C)[C@@H]1NC(=O)[C@H](C)N(C)C(=O)C[C@@H](C)NC(=O)[C@H](C2CCCC2)N(C)C(=O)C2(CCCC2)NC(=O)[C@@H]2CCCN2C(=O)[C@H](CCc2ccc(C(F)(F)F)c(Cl)c2)NC(=O)[C@@H](C)N(C)C(=O)[C@H](C(C)C)N(C)C(=O)[C@@H]2CCN2C(=O)[C@H](C)N(C)C1=O` [Compound 1066] (cyclo([Ac5c][NMeGly(cPent)][d(β3hA)][NMeA]I[NMeA][Aze][NMeV][dNMeA][hPhe(3-Cl-4-CF3)]P)), which IC50 is on record?
The IC50 was 24 nM.

For `CC[C@H](C)[C@@H]1NC(=O)[C@H](C)N(C)C(=O)C[C@@H](C)NC(=O)[C@H](CC(C)C)N(C)C(=O)C(C)(C)NC(=O)[C@H](CC(C)C)N(C)C(=O)[C@H](CCc2ccc(C(F)(F)F)cc2)NC(=O)CN(C)C(=O)[C@H]([C@@H](C)OCc2ccccc2)N(C)C(=O)CN(C)C(=O)CN(C)C1=O` [Compound 1067] (cyclo([Aib][NMeL][d(β3hA)][NMeA]I[Sar][Sar][NMeT](Bn)[Sar][hPhe(4-CF3)][NMeL])), which IC50 is on record?
The IC50 was 290 nM.

For `CC[C@H](C)[C@@H]1NC(=O)[C@H](C(C)C)N(C)C(=O)C[C@@H](C)NC(=O)[C@H](C(C)C)N(C)C(=O)C2(CCCC2)NC(=O)[C@H](CC(C)C)N(C)C(=O)[C@H](CCc2ccc(C(F)(F)F)c(Cl)c2)NC(=O)CN(C)C(=O)[C@H](Cc2ccc(Cl)cc2)N(C)C(=O)CN(C)C(=O)CN(C)C1=O` [Compound 1069] (cyclo([Ac5c][NMeV][d(β3hA)][NMeV]I[Sar][Sar][NMePhe(4-Cl)][Sar][hPhe(3-Cl-4-CF3)][NMeL])), which IC50 is on record?
The IC50 was 17 nM.

Which IC50 does the source give for `CC[C@H](C)[C@@H]1NC(=O)[C@H](CC(C)C)N(C)C(=O)C[C@@H](C(=O)N2CCCCC2)N(C)C(=O)[C@H](C(C)C)N(C)C(=O)[C@H](C(C)C)NC(=O)[C@H](CC(=O)N2CCC(F)(F)CC2)N(C)C(=O)[C@H](CCc2ccc(C(F)(F)F)c(Cl)c2)NC(=O)CN(C)C(=O)[C@H](CC2CCCCC2)N(C)C(=O)CN(C)C(=O)CN(C)C1=O` [Compound 1078] ([NMeL]I[Sar][Sar][NMeCha][Sar][hPhe(3-Cl-4-CF3)][NMeD](N(CH2CH2)2CF2)V[NMeV][NMeD]-Piperidide; lactam N-11) here?
The IC50 was 190 nM.

`CC[C@H](C)[C@@H]1NC(=O)[C@H](CC(C)C)N(C)C(=O)C[C@@H](C(=O)N2CCCCC2)N(C)C(=O)[C@H](C2CCCCC2)N(C)C(=O)C2(CCCC2)NC(=O)[C@@H]2CSCN2C(=O)[C@H](CCc2ccc(C(F)(F)F)c(Cl)c2)NC(=O)CN(C)C(=O)[C@H](CC2CCCCC2)N(C)C(=O)CN(C)C(=O)CN(C)C1=O` [Compound 1093] ([NMeL]I[Sar][Sar][NMeCha][Sar][hPhe(3-Cl-4-CF3)][Thz][Ac5c][NMeChg][NMeD]-Piperidide; lactam N-11) was tested. Which IC50 did it give?
The IC50 was 0.73 nM.

For `CC[C@H](C)[C@@H]1NC(=O)[C@H](CC(C)C)N(C)C(=O)C[C@@H](C)NC(=O)[C@H](C(C)C)N(C)C(=O)C2(CCCC2)NC(=O)[C@@H]2CCCN2C(=O)[C@H](CCc2ccc(C(F)(F)F)c(Cl)c2)NC(=O)CN(C)C(=O)[C@H](CC2CCCCC2)N(C)C(=O)[C@@H]2CCN2C(=O)[C@H](COC2CC2)N(C)C1=O` [Compound 1102] (cyclo([Ac5c][NMeV][d(β3hA)][NMeL]I[NMeS](Cyclopropyl)[Aze][NMeCha][Sar][hPhe(3-Cl-4-CF3)]P)), which IC50 is on record?
The IC50 was 160 nM.

How did the IC50 turn out when `CC[C@H](C)[C@@H]1NC(=O)[C@H](C)N(C)C(=O)C[C@@H](C(=O)N2CCCCC2)N(C)C(=O)[C@H](C(C)C)N(C)C(=O)C2(CCCC2)NC(=O)[C@@H]2CCCN2C(=O)[C@H](CCc2ccc(C(F)(F)F)c(Cl)c2)NC(=O)[C@H]2CCCCN2C(=O)[C@H](CC2CCCCC2)N(C)C(=O)CN(C)C(=O)CN(C)C1=O` [Compound 1118] ([NMeA]I[Sar][Sar][NMeCha][dPip][hPhe(3-Cl-4-CF3)]P[Ac5c][NMeV][NMeD]-Piperidide; lactam N-11) was run?
The IC50 was 200 nM.

How did the IC50 turn out when `CC[C@H](C)[C@@H]1NC(=O)[C@H](CC(C)C)N(C)C(=O)C[C@@H](C)NC(=O)[C@H](C(C)C)N(C)C(=O)C2(CCCC2)NC(=O)[C@@H]2CCCN2C(=O)[C@H](CCc2ccc(C(F)(F)F)c(Cl)c2)NC(=O)CN(C)C(=O)[C@H](CC2CCCCC2)N(C)C(=O)[C@@H]2CCN2C(=O)[C@H](COCC(C)(C)O)N(C)C1=O` [Compound 1122] (cyclo([Ac5c][NMeV][d(β3hA)][NMeL]I[NMeS](CH2CMe2OH)[Aze][NMeCha][Sar][hPhe(3-Cl-4-CF3)]P)) was run?
The IC50 was 67 nM.

How did the IC50 turn out when `CC[C@H](C)[C@@H]1NC(=O)[C@H](C(C)C)NC(=O)[C@@H]2CCCC[C@H]2NC(=O)[C@H](CC(C)C)N(C)C(=O)C2(CCCC2)NC(=O)[C@H](CC(C)C)N(C)C(=O)[C@H](CCc2ccc(C(F)(F)F)cc2)NC(=O)CN(C)C(=O)[C@H](Cc2ccc(Cl)cc2)N(C)C(=O)CN(C)C(=O)CN(C)C1=O` [Compound 1126] (cyclo([Ac5c][NMeL][ACHC(1R,2R)]VI[Sar][Sar][NMePhe(4-Cl)][Sar][hPhe(4-CF3)][NMeL])) was run?
Its IC50 is 250 nM.

With `CC[C@H](C)[C@@H]1NC(=O)[C@H](CC(C)C)N(C)C(=O)C[C@@H](C(=O)N2CCOCC2)N(C)C(=O)[C@H](C2CCCC2)N(C)C(=O)C2(CCCC2)NC(=O)[C@@H]2CCCN2C(=O)[C@H](CCc2ccc(C(F)(F)F)c(Cl)c2)NC(=O)CN(C)C(=O)[C@H](CC2CCCCC2)N(C)C(=O)[C@@H]2CCN2C(=O)[C@H](C)NC1=O` [Compound 1137] ([NMeL]IA[Aze][NMeCha][Sar][hPhe(3-Cl-4-CF3)]P[Ac5c][NMeGly(cPent)][NMeD]-Morpholide; lactam N-11) as the compound, how does the IC50 read?
Its IC50 is 4.6 nM.

For `CC[C@H](C)[C@@H]1NC(=O)[C@H](CC(C)C)N(CC)C(=O)C[C@@H](C(=O)N2CCOCC2)N(C)C(=O)[C@H](C2CCCC2)N(C)C(=O)C2(CCCC2)NC(=O)[C@@H]2CCCN2C(=O)[C@H](CCc2ccc(C(F)(F)F)c(Cl)c2)NC(=O)CN(C)C(=O)[C@H](C2CCCC2)N(C)C(=O)[C@@H]2CCN2C(=O)[C@H](C)NC1=O` [Compound 1140] ([NEtLeu]IA[Aze][NMeGly(cPent)][Sar][hPhe(3-Cl-4-CF3)]P[Ac5c][NMeGly(cPent)][NMeD]-Morpholide; lactam N-11), which IC50 is on record?
Its IC50 is 2 nM.

`CC[C@H](C)[C@@H]1NC(=O)[C@H](CC(C)C)N(C)C(=O)C[C@@H](C(=O)N2CCOCC2)N(C)C(=O)[C@H](C2CCCC2)N(C)C(=O)C2(CCCC2)NC(=O)[C@@H]2CCCN2C(=O)[C@H](CCc2ccc(C(F)(F)F)c(Cl)c2)NC(=O)CN(CC)C(=O)[C@H](C2CCCC2)N(C)C(=O)[C@@H]2CCN2C(=O)[C@H](C)N(C)C1=O` [Compound 1142] ([NMeL]I[NMeA][Aze][NMeGly(cPent)][NEtG][hPhe(3-Cl-4-CF3)]P[Ac5c][NMeGly(cPent)][NMeD]-Morpholide; lactam N-11) was tested. Which IC50 did it give?
The IC50 was 6.5 nM.

For `CC[C@H](C)[C@@H]1NC(=O)[C@H](CC2CCCC2)N(C)C(=O)C[C@@H](C(=O)N2CCOCC2)N(C)C(=O)[C@H](C2CCCC2)N(C)C(=O)C2(CCCC2)NC(=O)[C@@H]2CCCN2C(=O)[C@H](CCc2ccc(C(F)(F)F)c(Cl)c2)NC(=O)CN(C)C(=O)[C@H](C2CCCC2)N(C)C(=O)[C@@H]2CCN2C(=O)[C@H](C)NC1=O` [Compound 1145] ([NMeAla(cPent)]IA[Aze][NMeGly(cPent)][Sar][hPhe(3-Cl-4-CF3)]P[Ac5c][NMeGly(cPent)][NMeD]-Morpholide; lactam N-11), which IC50 is on record?
Its IC50 is 1.1 nM.
